Test results: patent US20210337789A1, “Derivatives of m-Guaiacol, Their Preparation and Their Uses” (Universite de Caen Normandie, priority 2018, published 2021)
Like-named read-outs stand apart in the source and are kept apart here.

Key:
[1] = tested on: Micrococcus luteus reference strain; assay: Bacterial growth (optical density at 600 nm) on Micrococcus luteus reference strain; format: cell-based; design: key: 0 = no effect, 1 = pure only, 2 = several concentrations, 3 = strong at all; conditions: in DMSO diluted in PBS, compared with triclosan
Procedure: (§1) The bacterial growth is evaluated by measuring the optical density (DO) at 600 nm using NanoDrop.
(§2) This ratio permits a classification of the molecules in 4 effect levels: • 0=no effect observed; • 1=effect observed only when the molecule is tested pure; • 2=effect observed at several concentrations, but which gradually decreases the dilutions; • 3=strong effect observed at each concentration of molecule tested.
The molecules are put in a solution in DMSO and diluted in PBS.

[2] = tested on: KB cells (epidermoid carcinoma); assay: In vitro cytotoxicity, cell proliferation test (MTS) on KB cells; format: cell-based; conditions: Homo sapiens, read-out: percentage of inhibition of cell growth
Procedure: The human cell strain KB (epidermoid carcinoma) was obtained from the NCI (National Cancer Institute) and cultivated in the D-MEM medium added with 10% of foetal bovine serum (Invitrogen) in the presence of penicillin, streptomycin and fungizone in flasks of […] under CO2 at 5%. The cells were deposited on tissue culture microplates with 96 wells and a density of 650 cells/well in 200 μl of medium and treated 24 hours later with compounds of the invention dissolved in DMSO at concentrations going from 0.5 nM to 10 μM using a Biomek 3000 (Beckman-Coulter) automaton. The controls received the same volume of DMSO (1% of final volume). After 72 hours of exposure, the MTS reagent (Celltiter 96Aqueous One solution, Promega) was added and incubated for 3 hours at 37° C.: the absorbance was measured at 490 nm and the results of inhibition of the cell proliferation were calculated according to the ratio [(1−(OD490treated/OD490control))×100].
Results: Cytotoxicity at 10^−5 and 10^−6M on Triplicate KB Cells, Measured after 72 Hours of Exposure.
The percentage of inhibition of cell growth with respect to the cells receiving the same quantity of DMSO is outlined in the table below.

[3] = tested on: S. aureus strains presenting high levels of resistance; assay: Bacterial growth on S. aureus strains presenting high levels of resistance; format: cell-based, Staphylococcus aureus; design: key to Effects (0 < 1 < 2 < 3): 0 = no effect; 1 = pure only; 2 = several concs; 3 = strong at each; conditions: for Effects (0 < 1 < 2 < 3): molecules at 1, 0.5 and 0.1 mg/ml, triclosan at 0.1 mg/ml
Procedure: as §1, §2
(§3) Compounds of the invention were tested on 4 strains of E. coli, 3 strains of K. pneumoniae and 4 strains of S. aureus with the resistance profiles below.

[4] = tested on: E. coli strains presenting high levels of resistance; assay: Bacterial growth on E. coli strains presenting high levels of resistance; format: cell-based, Escherichia coli; design: key to Effects (0 < 1 < 2 < 3): 0 = no effect; 1 = pure only; 2 = several concs; 3 = strong at each; conditions: for Effects (0 < 1 < 2 < 3): molecules at 1, 0.5 and 0.1 mg/ml, triclosan at 0.1 mg/ml
Procedure: as §1, §2, §3

[5] = tested on: K. pneumoniae strains presenting high levels of resistance; assay: Bacterial growth on K. pneumoniae strains presenting high levels of resistance; format: cell-based, Klebsiella pneumoniae; design: key to Effects (0 < 1 < 2 < 3): 0 = no effect; 1 = pure only; 2 = several concs; 3 = strong at each; conditions: for Effects (0 < 1 < 2 < 3): molecules at 1, 0.5 and 0.1 mg/ml, triclosan at 0.1 mg/ml
Procedure: as §1, §2, §3

Klebsiella pneumoniae = assay: Bacterial growth screening on wild-type phenotype strain, K. pneumoniae; format: cell-based
Procedure: as §1, §2
(§4) A screening of molecules of the invention on several wild-type phenotype strains has been carried out.
(§5) The strains initially selected are: • Gram+: Streptococcus equi subsp zooepidemicus and Staphylococcus aureus • Gram−: Escherichia coli, Klebsiella pneumoniae and Stenotrophomonas maltophila.

Staphylococcus aureus = assay: Bacterial growth screening on wild-type phenotype strain, S. aureus; format: cell-based
Procedure: as §1, §2, §4, §5

Escherichia coli = assay: Bacterial growth screening on wild-type phenotype strain, E. coli; format: cell-based
Procedure: as §1, §2, §4, §5

[6] = tested on: Streptococcus equi subsp zooepidemicus; assay: Bacterial growth screening on wild-type phenotype strain, S. zooepidemicus; format: cell-based
Procedure: as §1, §2, §4, §5

[7] = tested on: Stenotrophomonas maltophila; assay: Bacterial growth screening on wild-type phenotype strain, S. maltophila; format: cell-based
Procedure: as §1, §2, §4, §5

[8] = 10^−5 M, KB cells, triplicate, 72 hours of exposure, with respect to DMSO control
[9] = 10^−6 M, KB cells, triplicate, 72 hours of exposure, with respect to DMSO control
[10] = K. pneumoniae Strain 1, 0.1 mg/ml
[11] = K. pneumoniae Strain 2, 0.1 mg/ml
[12] = K. pneumoniae Strain 3, 0.1 mg/ml

## COc1cc(O)c(I)c(F)c1F [sr7612]
[1]
  Effect level: 2

## COc1c(Cl)cc(Cl)c(O)c1C [sr7607]
[1]
  Effect level: 2
[2]; [8]
  inhibition at 10 µM: 0%
[2]; [9]
  inhibition at 1 µM: 0%

## COc1cc(O)c(Br)cc1Br [sr7582]
[2]; KB, 72 h
  inhibition at 1 µM: 0%
  inhibition at 10 µM: 1 ± 7%

## COc1c(Cl)c(O)c(Cl)c(F)c1Cl [sr7587]
[2]; [8]
  inhibition at 10 µM: 0%
[2]; [9]
  inhibition at 1 µM: 8 ± 4%

## COc1cc(O)c(Br)c(F)c1F [sr7611]
[1]
  Effect level: 2

## COc1cc(O)c(F)cc1Cl [sr7580]
[2]; [8]
  inhibition at 10 µM: 16 ± 4%
[2]; [9]
  inhibition at 1 µM: 5 ± 8%

## COc1cc(O)c(Cl)c(C)c1Cl [sr7608]
[1]
  Effect level: 2
[2]; [8]
  inhibition at 10 µM: 7 ± 11%
[2]; [9]
  inhibition at 1 µM: 0%

## Oc1cc(Cl)ccc1Oc1ccc(Cl)cc1Cl [Triclosan, reference compound]
[3]; S. aureus Strain 1, 0.1 mg/ml
  Δ DO: 0.441
[3]; S. aureus Strain 1
  Effects (0 < 1 < 2 < 3): 3
[3]; S. aureus Strain 2, 0.1 mg/ml
  Δ DO: 0.459
[3]; S. aureus Strain 2
  Effects (0 < 1 < 2 < 3): 3
[3]; S. aureus Strain 3, 0.1 mg/ml
  Δ DO: 0.532
[3]; S. aureus Strain 3
  Effects (0 < 1 < 2 < 3): 3
[3]; S. aureus Strain 4, 0.1 mg/ml
  Δ DO: 0.490
[3]; S. aureus Strain 4
  Effects (0 < 1 < 2 < 3): 3
[4]; E. coli Strain 1, 0.1 mg/ml
  Δ DO: 1.005
[4]; E. coli Strain 1
  Effects (0 < 1 < 2 < 3): 3
[4]; E. coli Strain 2, 0.1 mg/ml
  Δ DO: 1.197
[4]; E. coli Strain 2
  Effects (0 < 1 < 2 < 3): 3
[4]; E. coli Strain 3, 0.1 mg/ml
  Δ DO: 0.948
[4]; E. coli Strain 3
  Effects (0 < 1 < 2 < 3): 3
[4]; E. coli Strain 4, 0.1 mg/ml
  Δ DO: 1.080
[4]; E. coli Strain 4
  Effects (0 < 1 < 2 < 3): 3
[2]; KB, 72 h
  inhibition at 1 µM: 5 ± 12%
  inhibition at 10 µM: 78 ± 3%
[5]; [10]
  Δ DO: 0.824
[5]; K. pneumoniae Strain 1
  Effects (0 < 1 < 2 < 3): 3
[5]; [11]
  Δ DO: 0.893
[5]; K. pneumoniae Strain 2
  Effects (0 < 1 < 2 < 3): 3
[5]; [12]
  Δ DO: 1.092
[5]; K. pneumoniae Strain 3
  Effects (0 < 1 < 2 < 3): 3

## COc1cc(O)c(Cl)c(Br)c1F [sr7614]
Klebsiella pneumoniae
  Effect level, K. pneumoniae: 2
[1]
  Effect level: 3
Staphylococcus aureus
  Effect level, S. aureus: 2
[2]; [8]
  inhibition at 10 µM: 6 ± 4%
[2]; [9]
  inhibition at 1 µM: 0%
Escherichia coli
  Effect level, E. coli: 3
[6]
  Effect level, S. zooepidemicus: 2
[7]
  Effect level, S. maltophila: 2

## COc1cc(O)c(Cl)c(Cl)c1Cl [sr7585]
[3]; S. aureus Strain 1, 0.1 mg/ml
  Δ DO: 0.352
[3]; S. aureus Strain 1, 0.5 mg/ml
  Δ DO: 0.445
[3]; S. aureus Strain 1, 1 mg/ml
  Δ DO: 0.445
[3]; S. aureus Strain 1
  Effects (0 < 1 < 2 < 3): 3
[3]; S. aureus Strain 2, 0.1 mg/ml
  Δ DO: 0.385
[3]; S. aureus Strain 2, 0.5 mg/ml
  Δ DO: 0.458
[3]; S. aureus Strain 2, 1 mg/ml
  Δ DO: 0.457
[3]; S. aureus Strain 2
  Effects (0 < 1 < 2 < 3): 3
[3]; S. aureus Strain 3, 0.1 mg/ml
  Δ DO: 0.459
[3]; S. aureus Strain 3, 0.5 mg/ml
  Δ DO: 0.529
[3]; S. aureus Strain 3, 1 mg/ml
  Δ DO: 0.530
[3]; S. aureus Strain 3
  Effects (0 < 1 < 2 < 3): 3
[3]; S. aureus Strain 4, 0.1 mg/ml
  Δ DO: 0.405
[3]; S. aureus Strain 4, 0.5 mg/ml
  Δ DO: 0.491
[3]; S. aureus Strain 4, 1 mg/ml
  Δ DO: 0.486
[3]; S. aureus Strain 4
  Effects (0 < 1 < 2 < 3): 3
Klebsiella pneumoniae
  Effect level, K. pneumoniae: 2
[1]
  Effect level: 3
Staphylococcus aureus
  Effect level, S. aureus: 3
[4]; E. coli Strain 1, 0.1 mg/ml
  Δ DO: 0.196
[4]; E. coli Strain 1, 0.5 mg/ml
  Δ DO: 0.746
[4]; E. coli Strain 1, 1 mg/ml
  Δ DO: 0.920
[4]; E. coli Strain 1
  Effects (0 < 1 < 2 < 3): 3
[4]; E. coli Strain 2, 0.1 mg/ml
  Δ DO: 0.313
[4]; E. coli Strain 2, 0.5 mg/ml
  Δ DO: 0.964
[4]; E. coli Strain 2, 1 mg/ml
  Δ DO: 1.097
[4]; E. coli Strain 2
  Effects (0 < 1 < 2 < 3): 3
[4]; E. coli Strain 3, 0.1 mg/ml
  Δ DO: 0.186
[4]; E. coli Strain 3, 0.5 mg/ml
  Δ DO: 0.736
[4]; E. coli Strain 3, 1 mg/ml
  Δ DO: 0.893
[4]; E. coli Strain 3
  Effects (0 < 1 < 2 < 3): 3
[4]; E. coli Strain 4, 0.1 mg/ml
  Δ DO: 0.322
[4]; E. coli Strain 4, 0.5 mg/ml
  Δ DO: 0.848
[4]; E. coli Strain 4, 1 mg/ml
  Δ DO: 0.979
[4]; E. coli Strain 4
  Effects (0 < 1 < 2 < 3): 3
[2]; [8]
  inhibition at 10 µM: 0%
[2]; [9]
  inhibition at 1 µM: 0%
Escherichia coli
  Effect level, E. coli: 3
[5]; [10]
  Δ DO: 0.251
[5]; K. pneumoniae Strain 1, 0.5 mg/ml
  Δ DO: 0.595
[5]; K. pneumoniae Strain 1, 1 mg/ml
  Δ DO: 0.644
[5]; K. pneumoniae Strain 1
  Effects (0 < 1 < 2 < 3): 3
[5]; [11]
  Δ DO: 0.035
[5]; K. pneumoniae Strain 2, 0.5 mg/ml
  Δ DO: 0.620
[5]; K. pneumoniae Strain 2, 1 mg/ml
  Δ DO: 0.701
[5]; K. pneumoniae Strain 2
  Effects (0 < 1 < 2 < 3): 2
[5]; [12]
  Δ DO: 0.265
[5]; K. pneumoniae Strain 3, 0.5 mg/ml
  Δ DO: 0.683
[5]; K. pneumoniae Strain 3, 1 mg/ml
  Δ DO: 0.872
[5]; K. pneumoniae Strain 3
  Effects (0 < 1 < 2 < 3): 2
[6]
  Effect level, S. zooepidemicus: 3
[7]
  Effect level, S. maltophila: 2

## COc1cc(O)c(Cl)c(Br)c1 [sr7609]
Klebsiella pneumoniae
  Effect level, K. pneumoniae: 2
[1]
  Effect level: 3
Staphylococcus aureus
  Effect level, S. aureus: 2
Escherichia coli
  Effect level, E. coli: 2
[7]
  Effect level, S. maltophila: 2

## Oc1cc(I)c(F)cc1F [sr7618]
[1]
  Effect level: 2

## COc1cc(O)c(I)cc1I [sr7584]
[1]
  Effect level: 2
[2]; KB, 72 h
  inhibition at 1 µM: 0%
  inhibition at 10 µM: 0%

## COc1cc(O)c(Cl)cc1Br [sr7583]
Klebsiella pneumoniae
  Effect level, K. pneumoniae: 2
[1]
  Effect level: 3
[2]; [8]
  inhibition at 10 µM: 0%
[2]; [9]
  inhibition at 1 µM: 0%
Escherichia coli
  Effect level, E. coli: 2

## COc1c(Cl)cc(Cl)c(O)c1Cl [sr7586]
[2]; [8]
  inhibition at 10 µM: 0%
[2]; [9]
  inhibition at 1 µM: 6 ± 8%

## COc1cc(O)c(Cl)c(F)c1F [sr7610]
[1]
  Effect level: 2

## COc1cc(O)c(Cl)cc1F [sr7581]
[2]; [8]
  inhibition at 10 µM: 0%
[2]; [9]
  inhibition at 1 µM: 0%
